Reference: patent US20190150437A1, “USE OF SESQUITERPENES AND THEIR ANALOGS AS GREEN INSECTICIDES FOR CONTROLLING DISEASE VECTORS AND PLANT PESTS” (Ohio State Innovation Foundation, priority 2016, published 2019)
Entries after “also recorded” stand apart in the source; their conditions may differ. Marks after values point to notes of the source that are not given here.

Experiments:
[1] = test system: A. aegypti 1st instar larvae; assay: Larval mosquito toxicity, compound added to rearing water, 24 h; assay type: in vivo, Aedes aegypti; settings: for Larval mosquitoes EC50 in ppm (95% CI), A. aegypti: larvae, 24 h after adding to rearing water
Description: (§1) A,C) Concentration-toxicity relationships in 1st instar larvae 24 h after adding CINEX or indicated compound to the rearing water. B,D) Dose-toxicity relationships in adult females 24 h after applying CINEX or indicated compound to the thoracic cuticle. CDIAL=OSU-1.
(§2) Each compound of cinnamodial (CDIAL), cinnafragrin A (CM18) and cinnamosmolide (CMOS) were isolated form the barks of the Madagascan plants Cinnamosma fragrans, Cinnamosma macrocarpa and Cinnamosma madagascariensis. Each was dissolved in 100% acetone and applied directly to the cuticle of adult female mosquitoes (Aedes aegypti, Anopheles gambiae, and Culex pipiens) or 3rd instar nymph soybean aphids (Aphis glycines). The bark extract and the isolated compounds was toxic to larval and adult female mosquitoes within 24 hr in a concentration/dose dependent manner (FIGS. 4 and 5). Among the isolated compounds.

C. pipiens larvae = assay: as above; assay type: in vivo, Culex pipiens; settings: 24 h after adding to rearing water
Description: (§3) The concentration/dose-toxicity relationships for Ae. aegypti from FIG. 4 are superimposed to facilitate comparisons.
as §2

A. gambiae larvae = assay: as above; assay type: in vivo, Anopheles gambiae; settings: 24 h after adding to rearing water
Description: as §3, §2

A. aegypti adult females = assay: Adult female mosquito toxicity, applied to thoracic cuticle, 24 h; assay type: in vivo, Aedes aegypti; settings: for Adult female mosquitoes ED50 in μg/mg mosquito (95% CI), A. aegypti: adult females, 24 h after applying to thoracic cuticle, in acetone
Description: as §1, §2

C. pipiens adult females = assay: as above; assay type: in vivo, Culex pipiens; settings: 24 h after applying to thoracic cuticle, in acetone
Description: as §3, §2

A. gambiae adult females = assay: as above; assay type: in vivo, Anopheles gambiae; settings: 24 h after applying to thoracic cuticle, in acetone
Description: as §3, §2

[2] = test system: soybean aphid Aphis glycines; assay: Soybean aphid toxicity, applied to cuticle of 3rd instar nymphs, 24 h; assay type: in vivo; settings: for ED50 in aphids: 3rd instar nymphs, 24 h after application to cuticle
Description: Dose-toxicity relationships in 3rd instar nymphs 24 h after adding CINEX or indicated compound to the thoracic cuticle. CDIAL=OSU-1.
as §2

[3] = test system: Alpha-glucosidase (EC 3.2.1.20); assay: Alpha-Glucosidase Inhibition Assay; assay type: biochemical; settings: for Alpha-glucosidase inhibitory activity, in words / alpha-Glucosidase inhibition (%): 0.1 mg/mL final concentration
Description: Alpha-Glucosidase Inhibition Assay.
The assay was performed according to the 126 Journal of Natural Products, 2008. Vol. 71. No. 1 Notes
method described by Oki and co-workers, with slight modifications.^13 alpha-Glucosidase was purchased from Toyobo Co., Ltd. (Osaka. Japan). The enzyme solution was prepared by dissolving 0.6 U/mL of Alpha-glucosidase in 100 mM phosphate buffer (pH 7) containing 2 g/L bovine serum albumin and 0.2 g/L NaN3. p-Nitrophenyl-R-D-glucopyranoside (5 mM) in the same buffer solution (pH 7) was used as a substrate solution. The enzyme solution (50 μL) and the test compounds (10 μL), dissolved in DMSO to a final concentration of 0.1 mg/mL, were mixed in each well of the microliter 96-well culture plates and measured spectrophotometrically (absorbance 405 nm) at zero time, using a microplate reader (Bio-Rad model 550 microplate reader). The mixture was preincubated for 5 min at room temperature before the addition of substrate solution ([…]) and followed by a 5 min incubation at room temperature. The increase in absorbance from zero time was measured. The inhibitory activity was expressed as […] minus the relative absorbance difference (%) of test compounds to absorbance change of the control where the test solution was replaced by DMSO. 1-Deoxynojirimycin (Wako Pure Chemical Industries, Ltd.) 0.3 mM in DMSO was used as a positive control.

[4] = test system: adult female Aedes aegpti; assay: Blood-feeding bioassay (mosquito repellency, membrane feeder); assay type: in vivo, Aedes aegypti; settings: 20.8 μg/cm^2 on nylon fabric covering the blood source, 1 h
Source text: FIG. 8 is a graph showing repellent efficacy of CINEX and CDIAL (OSU-1) compared to DEET, an industry standard. Values are means±SEM; N=31, 9, 5, and 15 respectively for Control, DEET, CINEX, and CDIAL. Lower-case letters indicate statistical categorization of the means as determined by a one-way ANOVA with a Newman-Keuls posttest (P<0.05).
We used a blood-feeding bioassay to test the efficacy of OSU-1 (CDIAL) and the C. fragrans bark extract (CINEX) to repel mosquitoes from feeding on a blood source. In brief, cages of 20 mosquitoes (adult female Aedes aegpti) were starved for 24 h before being allowed to feed on a membrane feeder (Hemotek) containing defibrinated rabbit blood. After 1 h, the mosquitoes were immobilized on ice and the number of individuals with blood in their abdomen was counted. The membrane feeder maintains the blood at a constant temperature of 37° C. (human body temperature) and is covered with a collagen membrane that mimics human skin. Mosquitoes pierce through the collagen membrane with their proboscis to obtain the blood. […] Lower-case letters indicate statistical categorization of the means as determined by a one-way ANOVA with a Newman-Keuls posttest (P<0.05).

[5] = test system: Alpha-glucosidase (EC 3.2.1.20); settings: reported in references 2 and 3; cited from earlier work

| Compound | Larval mosquitoes EC50 in ppm (95% CI), A. aegypti [1] | Adult female mosquitoes ED50 in μg/mg mosquito (95% CI), A. aegypti (A. aegypti adult females) | ED50 in aphids [2] | Alpha-glucosidase inhibitory activity, in words [3] | alpha-Glucosidase inhibition (%) [3] | other results |
| --- | --- | --- | --- | --- | --- | --- |
| CC(=O)O[C@@H]1C=C(C=O)[C@@](O)(C=O)[C@@]2(C)CCCC(C)(C)C12 (stereo partly shown) [CDIAL, cinnamodial] | 21.6 ppm | 0.09 μg/mg mosquito | 0.38 μg/aphid | most potent activity | 83.7% | Toxicity to larval mosquitoes, in words ([1]; within 24 hr, concentration dependent): most potent and efficacious; Larval mosquitoes EC50 in ppm (95% CI), C. pipiens (C. pipiens larvae): 13.3† ppm; Larval mosquitoes EC50 in ppm (95% CI), A. gambiae (A. gambiae larvae): 29.8 ppm; Toxicity to adult female mosquitoes, in words (A. aegypti adult females; within 24 hr, dose dependent): most potent and efficacious; Adult female mosquitoes ED50 in μg/mg mosquito (95% CI), C. pipiens (C. pipiens adult females): 0.17† μg/mg mosquito; Adult female mosquitoes ED50 in μg/mg mosquito (95% CI), A. gambiae (A. gambiae adult females): 0.05† μg/mg mosquito; Toxicity to aphids, in words ([2]; within 24 h of application): most potent; Percentage of mosquitoes feeding on a blood source, in words [4]: significantly reduced; Alpha-glucosidase inhibition, in words, from earlier papers [5]: strong inhibition |
| CC1(C)CCC[C@]2(C)[C@H](C=O)C(C=O)=CC[C@@H]12 [isopolygodial, reference compound] |  |  |  |  |  | Alpha-glucosidase inhibition, in words, from earlier papers [5]: did not show any activity |
| OC[C@H]1NC[C@H](O)[C@@H](O)[C@@H]1O [1-deoxynojirimycin, reference compound] |  |  |  |  |  | alpha-Glucosidase inhibition (%), positive control ([3]; 0.3 mM in DMSO, positive control): 100% |
| CC(=O)O[C@@H]1C=C2C(=O)OCC2(O)[C@@]2(C)CCCC(C)(C)C12 (stereo partly shown) [CMOS, cinnamosmolide] | 134.4* ppm | 3.94* μg/mg mosquito | 2.5 μg/aphid |  | 20.0% |  |
| cinnamadin [Compound 1] |  |  |  | moderate effects | 14.9% |  |
| CC1(C)CCC[C@]2(C)[C@@H](C=O)C(C=O)=CC[C@@H]12 [Compound 5, polygodial] |  |  |  | only slight activity; also recorded: did not show any activity | 2.1% |  |
| COC1OC(OC)C2(O)C1=CC(OC(C)=O)C1C(C)(C)CCCC12C (stereo not shown) [Compound 2, cinnamodial 11R,12-dimethyl acetal] |  |  |  |  | not active |  |
| CC1(C)CCC[C@@]2(C)[C@H]1[C@H](O)C=C1C(=O)OC[C@]12O [Compound 3, pereniporin B] |  |  |  |  | 7.2% |  |
| CC(=O)O[C@@H]1C=C(C2OC3OC(O)C4=C[C@@H](OC(C)=O)C5C(C)(C)CCC[C@]5(C)[C@]43O2)[C@@](O)(C=O)[C@@]2(C)CCCC(C)(C)C12 (stereo partly shown) [CM18, cinnafragrin A] | 22.6 ppm | 2.03* μg/mg mosquito | 1.7 μg/aphid |  |  |  |
| CC(=O)O[C@@H]1[C@@H](O)C2=C(C(=O)OC2)[C@@]2(C)CCCC(C)(C)[C@H]12 [Compound 4, ugandensolide] |  |  |  | moderate effects; also recorded: moderate activity | 46.2% |  |
